Experimental data as given in patent US4292317A, “1,4-Dihydro-quinoline-3-carboxylic acid derivatives, process for their preparation and compositions containing them” (Laboratorie Roger Bellon, priority 1977, dated 1981).
Values after ≈ are worked out from the molar mass of the structure shown. Like-named read-outs stand apart in the source and are kept apart here.

Assays:
Assay type in all cases: cell-based
Staph. 9.144 = assay: M.I.C. in vitro, nutrient agar dilution; conditions: 18 h, read-out: M.I.C.
Protocol: (§1) After sterilisation at 120° C., the pH was 6.8.
(§2) The minimum inhibitory concentrations (M.I.C.) were determined by dilution of the test compounds in this mixture, the concentration ranging from 0.05 to 100 μg/cm^3 in a geometric progression with a factor of 2.
(§3) The inoculation of the dishes was carried out by means of a multiple inoculator with 10^-3 dilutions of 18 hour old broth cultures.
(§4) The dishes were placed in an oven at 37° C. and the readings were taken afer an incubation time of 18 hours. The M.I.C. was taken as the lowest concentration which inhibited a culture.

Providentia 0223 = assay: M.I.C. in vitro, nutrient agar dilution; conditions: 18 h, read-out: M.I.C.
Protocol: as §1, §2, §3, §4

Klebs. pneum. 10.031 = assay: M.I.C. in vitro, nutrient agar dilution; conditions: 18 h, read-out: M.I.C.
Protocol: as §1, §2, §3, §4

Esch. coli 54.127 O.M.S. = assay: M.I.C. in vitro, nutrient agar dilution; conditions: Escherichia coli, 18 h, read-out: M.I.C.
Protocol: as §1, §2, §3, §4

Pr. morganii A.236 = assay: M.I.C. in vitro, nutrient agar dilution; conditions: Morganella morganii, 18 h, read-out: M.I.C.
Protocol: as §1, §2, §3, §4

Esch. coli 95 I.S.M. = assay: M.I.C. in vitro, nutrient agar dilution; conditions: Escherichia coli, 18 h, read-out: M.I.C.
Protocol: as §1, §2, §3, §4

Arizona 6.211 = assay: M.I.C. in vitro, nutrient agar dilution; conditions: 18 h, read-out: M.I.C.
Protocol: as §1, §2, §3, §4

Serratia = assay: M.I.C. in vitro, nutrient agar dilution; conditions: 18 h, read-out: M.I.C.
Protocol: as §1, §2, §3, §4

Ps. aeruginosa 72.345 = assay: M.I.C. in vitro, nutrient agar dilution; conditions: Pseudomonas aeruginosa, 18 h, read-out: M.I.C.
Protocol: as §1, §2, §3, §4

S. enteritidis Danysz = assay: M.I.C. in vitro, nutrient agar dilution; conditions: Salmonella enterica, 18 h, read-out: M.I.C.
Protocol: as §1, §2, §3, §4

Esch. coli 111 B4 = assay: M.I.C. in vitro, nutrient agar dilution; conditions: Escherichia coli, 18 h
Protocol: as §1, §2, §3, §4

Sh. sonnei I.P.S. = assay: M.I.C. in vitro, nutrient agar dilution; conditions: Shigella sonnei, 18 h, read-out: M.I.C.
Protocol: as §1, §2, §3, §4

Pr. mirabilis Nig = assay: M.I.C. in vitro, nutrient agar dilution; conditions: Proteus mirabilis, 18 h, read-out: M.I.C.
Protocol: as §1, §2, §3, §4

Ps. aeruginosa A.22 = assay: M.I.C. in vitro, nutrient agar dilution; conditions: Pseudomonas aeruginosa, 18 h, read-out: M.I.C.
Protocol: as §1, §2, §3, §4

Strepto A 561 = assay: M.I.C. in vitro, nutrient agar dilution; conditions: 18 h
Protocol: as §1, §2, §3, §4

Strepto D.M. 19 = assay: M.I.C. in vitro, nutrient agar dilution; conditions: 18 h, read-out: M.I.C.
Protocol: as §1, §2, §3, §4

S. oranienburg 1066 = assay: M.I.C. in vitro, nutrient agar dilution; conditions: Salmonella enterica, 18 h, read-out: M.I.C.
Protocol: as §1, §2, §3, §4

Bord. bronchis. 4.617 = assay: M.I.C. in vitro, nutrient agar dilution; conditions: 18 h, read-out: M.I.C.
Protocol: as §1, §2, §3, §4

B. subtilis = assay: M.I.C. in vitro, nutrient agar dilution; conditions: Bacillus subtilis, 18 h, read-out: M.I.C.
Protocol: as §1, §2, §3, §4

Staph. 209 P = assay: M.I.C. in vitro, nutrient agar dilution; conditions: 18 h, read-out: M.I.C.
Protocol: as §1, §2, §3, §4

Pr. vulgaris 12-53 = assay: M.I.C. in vitro, nutrient agar dilution; conditions: Proteus vulgaris, 1253, 18 h, read-out: M.I.C.
Protocol: as §1, §2, §3, §4

Salm. typhi 0901 = assay: microbe, parasite or virus in culture; conditions: Salmonella enterica, 18 h
Protocol: as §1, §2, §3, §4

Work on `CCn1cc(C(=O)O)c(=O)c2cc(Cl)c(N3CCOCC3)cc21` [Example 7, 6-Chloro-1-ethyl-7-morpholino-4-oxo-1,4-dihydro-quinoline-3-carboxylic acid] yielded an MIC (Staph. 9.144; Table 2, Staph. 9.144 (Gram positive)) of 0.4 µg/mL (≈ 1.19 µM), an MIC (Providentia 0223; Table 2, Providentia 0223 (Gram negative)) greater than 100 µg/mL and an MIC (Klebs. pneum. 10.031; Table 2, Klebs. pneum. 10.031 (Gram negative)) of 0.2 µg/mL (≈ 0.594 µM). The MIC (Esch. coli 54.127 O.M.S.; Table 2, Esch. coli 54.127 O.M.S. (Gram negative)) was 3.1 µg/mL (≈ 9.2 µM), the MIC (Pr. morganii A.236; Table 2, Pr. morganii A.236 (Gram negative)) was 0.8 µg/mL (≈ 2.38 µM) and the MIC (Esch. coli 95 I.S.M.; Table 2, Esch. coli 95 I.S.M. (Gram negative)) was 1.6 µg/mL (≈ 4.75 µM). The MIC (Arizona 6.211; Table 2, Arizona 6.211 (Gram negative)) was 1.6 µg/mL (≈ 4.75 µM), the MIC (Serratia; Table 2, Berratia (Gram negative)) was 0.8 µg/mL (≈ 2.38 µM) and the MIC (Ps. aeruginosa 72.345; Table 2, Ps. aeruginosa 72.345 (Gram negative)) was 6.2 µg/mL (≈ 18.4 µM). The MIC (S. enteritidis Danysz; Table 2, S. enteritidis Danysz (Gram negative)) was 3.1 µg/mL (≈ 9.2 µM), the MIC (Esch. coli 111 B4; Table 2, Esch. coli 111 B4 (Gram negative)) was 3.1 µg/mL (≈ 9.2 µM) and the MIC (Sh. sonnei I.P.S.; Table 2, Sh. sonnei I.P.S. (Gram negative)) was 0.8 µg/mL (≈ 2.38 µM). The MIC (Pr. mirabilis Nig; Table 2, Pr. mirabilis Nig (Gram negative)) was 1.6 µg/mL (≈ 4.75 µM), the MIC (Ps. aeruginosa A.22; Table 2, Ps. aeruginosa A.22 (Gram negative)) was 12.5 µg/mL (≈ 37.1 µM) and the MIC (Strepto A 561; Table 2, Strepto A 561 (Gram positive)) was 100 µg/mL (≈ 297 µM). For the same molecule, the MIC (Strepto D.M. 19; Table 2, Strepto D.M. 19 (Gram positive)) was 50 µg/mL (≈ 148 µM), the MIC (S. oranienburg 1066; Table 2, S. oranienburg 1066 (Gram negative)) was greater than 100 µg/mL and the MIC (Bord. bronchis. 4.617; Table 2, Bord. bronchis. 4.617 (Gram negative)) was 12.5 µg/mL (≈ 37.1 µM). For the same molecule, the MIC (B. subtilis; Table 2, B. subtilis (Gram positive)) was 0.2 µg/mL (≈ 0.594 µM), the MIC (Staph. 209 P; Table 2, Staph. 209 P (Gram positive)) was 0.2 µg/mL (≈ 0.594 µM) and the MIC (Pr. vulgaris 12-53; Table 2, Pr. vulgaris 12-53 (Gram negative)) was 0.8 µg/mL (≈ 2.38 µM). It also gave an MIC (Salm. typhi 0901; Table 2, Salm. typhi 0901 (Gram negative)) of 3.1 µg/mL (≈ 9.2 µM).

`C=Cn1cc(C(=O)O)c(=O)c2cc(F)c(N3CCOCC3)cc21` [Example 42, 6-Fluoro-7-morpholino-4-oxo-1-vinyl-1,4-dihydro-quinoline-3-carboxylic acid] was tested, and the MIC (Staph. 9.144; Table III, Staph. 9.144) was 1.6 µg/mL (≈ 5.03 µM), the MIC (Providentia 0223; Table III, Providentia 0223) was 25 µg/mL (≈ 78.5 µM) and the MIC (Klebs. pneum. 10.031; Table III, Klebs. pneum. 10.031) was 0.8 µg/mL (≈ 2.51 µM). It also gave an MIC (Esch. coli 54.127 O.M.S.; Table III, Esch. coli 54.127 O.M.S.) of 0.8 µg/mL (≈ 2.51 µM), an MIC (Pr. morganii A.236; Table III, Pr. morganii A. 236) of 0.2 µg/mL (≈ 0.628 µM) and an MIC (Esch. coli 95 I.S.M.; Table III, Esch. coli 95 I.S.M.) of 0.8 µg/mL (≈ 2.51 µM). It also gave an MIC (Arizona 6.211; Table III, Arizona 6.211) of 0.8 µg/mL (≈ 2.51 µM), an MIC (Serratia; Table III) of 3.1 µg/mL (≈ 9.74 µM) and an MIC (Ps. aeruginosa 72.345; Table III, Pd. aeruginosa 72.345) of 6.2 µg/mL (≈ 19.5 µM). The MIC (S. enteritidis Danysz; Table III, S. enteritidis Danysz) was 1.6 µg/mL (≈ 5.03 µM), the MIC (Esch. coli 111 B4; Table III, Esch. coli 111 B4) was 0.8 µg/mL (≈ 2.51 µM) and the MIC (Sh. sonnei I.P.S.; Table III, Sh. sonnei I.P.S.) was 0.8 µg/mL (≈ 2.51 µM). The MIC (Pr. mirabilis Nig; Table III, Pr. mirabilis Nig) was 1.6 µg/mL (≈ 5.03 µM), the MIC (Ps. aeruginosa A.22; Table III, Ps. aeruginosa A.22) was 3.1 µg/mL (≈ 9.74 µM) and the MIC (Strepto A 561; Table III, Strepto A 561) was 25 µg/mL (≈ 78.5 µM). The MIC (Strepto D.M. 19; Table III, Strepto D.M. 19) was 12.5 µg/mL (≈ 39.3 µM), the MIC (S. oranienburg 1066; Table III, S. oranienburg 1066) was 100 µg/mL (≈ 314 µM) and the MIC (Bord. bronchis. 4.617; Table III, Bord. bronchis. 4.617) was 12.5 µg/mL (≈ 39.3 µM). The MIC (B. subtilis; Table III, B. Subtilis) was 0.2 µg/mL (≈ 0.628 µM), the MIC (Staph. 209 P; Table III, Staph. 209 P) was 0.8 µg/mL (≈ 2.51 µM) and the MIC (Pr. vulgaris 12-53; Table III, Pr. vulgaris 12-53) was 0.8 µg/mL (≈ 2.51 µM). It also gave an MIC (Salm. typhi 0901; Table III, Salm. typhi 0901) of 0.8 µg/mL (≈ 2.51 µM).
